This is an account of results in the supplement of paper PMC10307832.

Experiment in all cases: relative viability (nuclei count vs DMSO), 5 days (fraction); higher = more cells survive
Compound in the test “AZ3146 + Luminespib”: CN1CCC(CC1)OC2=CC(=C(C=C2)NC3=NC=C4C(=N3)N(C(=O)N4C)C5CCCC5)OC [AZ3146] + CCNC(=O)c1noc(-c2cc(C(C)C)c(O)cc2O)c1-c1ccc(CN2CCOCC2)cc1 [Luminespib] (partner 0.01 µM)
The method, boiled down: (§1)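 Lung cancer cell lines, seeded in 1536-well plates, were treated the following day by pin tool with a single drug or with five library-drug doses (not always all listed) in √10 steps on top of a fixed anchor-drug dose. Cells were fixed and nuclei stained in one step after 5 days, and nuclei were counted. Relative viability is the nuclei count for treated wells divided by that for vehicle wells, reported as medians of duplicate plates.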

Compound in the test “GSK-J4 + Crizotinib”: CCOC(=O)CCNc1cc(N2CCc3ccccc3CC2)nc(-c2ccccn2)n1 [GSK-J4] + C[C@@H](Oc1cc(-c2cnn(C3CCNCC3)c2)cnc1N)c1c(Cl)ccc(F)c1Cl [Crizotinib] (partner 1 µM)
The method, boiled down: as §1

Compound in the test “GSK-J4 + Dasatinib”: CCOC(=O)CCNc1cc(N2CCc3ccccc3CC2)nc(-c2ccccn2)n1 [GSK-J4] + Cc1nc(Nc2ncc(C(=O)Nc3c(C)cccc3Cl)s2)cc(N2CCN(CCO)CC2)n1 [Dasatinib] (partner 0.075 µM)
In outline:
as §1

Compound in the test “GSK-J4 + Pemetrexed”: CCOC(=O)CCNc1cc(N2CCc3ccccc3CC2)nc(-c2ccccn2)n1 [GSK-J4] + Nc1nc2[nH]cc(CCc3ccc(C(=O)N[C@@H](CCC(=O)O)C(=O)O)cc3)c2c(=O)[nH]1 [Pemetrexed] (partner 0.2 µM)
The method, boiled down: as §1

As to UMC-11, the relative viability with AZ3146 + Luminespib (first compound 0.08 µM) came to 0.959; with AZ3146 + Luminespib (first compound 0.253 µM) it was 1.2; in the test with AZ3146 + Luminespib (first compound 0.8 µM) it was 1.09; with AZ3146 + Luminespib (first compound 2.53 µM), 0.86; with AZ3146 + Luminespib (first compound 8 µM), 0.256; in the test with GSK-J4 + Crizotinib (first compound 0.5 µM), 0.601. In addition, the relative viability with GSK-J4 + Crizotinib (first compound 1.581 µM) was 0.557; with GSK-J4 + Crizotinib (first compound 5 µM), 0.702; with GSK-J4 + Crizotinib (first compound 15.81 µM) it was 0.666; with GSK-J4 + Crizotinib (first compound 50 µM), 0.509; with GSK-J4 + Dasatinib (first compound 0.5 µM), 0.43; with GSK-J4 + Dasatinib (first compound 5 µM), 0.43. Further, the relative viability is 0.392 with GSK-J4 + Dasatinib (first compound 15.81 µM); 0.231 in the test with GSK-J4 + Dasatinib (first compound 50 µM); 0.759 with GSK-J4 + Pemetrexed (first compound 0.5 µM); 0.667 with GSK-J4 + Pemetrexed (first compound 1.581 µM); 0.736 with GSK-J4 + Pemetrexed (first compound 5 µM); 0.771 with GSK-J4 + Pemetrexed (first compound 15.81 µM). For the same cell line, the relative viability in the test with GSK-J4 + Pemetrexed (first compound 50 µM) was 0.649.
